Data from ChEMBL document CHEMBL1201862, “PubChem BioAssay data set” (2004).
Active and inactive are the calls of the source.

Assays:
[1] = Trypanosoma cruzi growth suppression in host cells – NIH3T3 host cells, beta-gal luminescence, confirmation (AID 2044); format: functional, cell-based;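 note: intracellular parasites grown in NIH/3T3 mouse fibroblasts as host cells; luminescent beta-galactosidase reporter signal from transgenic T. cruzi replicating inside host cells; inhibitors lower the luminescence signal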
[2] = target: T1, Heat shock factor protein 1 (Mus musculus, UniProt P38532); experiment: enhancement of HSF1-driven luciferase signal – cell-based, NIH3T3, luminescence, dose retest, confirmation (AID 435004); format: functional;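 note: stress induced by proteasome inhibitor MG132 added 30 min after compound; luciferase reporter driven by HSF1 response element in NIH3T3 cells; actives raise luminescence as potentiators of the MG132 stress response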
T1 sequence (P38532 whole entry): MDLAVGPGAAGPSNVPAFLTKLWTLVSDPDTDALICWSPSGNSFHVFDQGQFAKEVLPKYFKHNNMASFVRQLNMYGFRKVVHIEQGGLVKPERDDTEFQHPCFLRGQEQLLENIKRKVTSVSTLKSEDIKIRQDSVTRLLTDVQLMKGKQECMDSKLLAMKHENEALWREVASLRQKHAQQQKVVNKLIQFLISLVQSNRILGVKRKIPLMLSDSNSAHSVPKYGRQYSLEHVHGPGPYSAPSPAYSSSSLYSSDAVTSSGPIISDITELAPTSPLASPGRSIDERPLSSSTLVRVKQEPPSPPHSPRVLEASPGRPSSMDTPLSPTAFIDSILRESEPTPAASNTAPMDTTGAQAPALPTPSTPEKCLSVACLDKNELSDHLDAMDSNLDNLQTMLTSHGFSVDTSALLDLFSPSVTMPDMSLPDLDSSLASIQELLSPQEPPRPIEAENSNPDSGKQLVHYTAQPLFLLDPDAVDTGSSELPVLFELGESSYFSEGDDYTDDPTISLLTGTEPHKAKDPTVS

[3] = NIH3T3 cell viability loss – ATP luminescence, mouse fibroblasts, counter-screen, dose response (AID 2010); format: functional, cell-based;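 note: cells exposed to compound for about 90 hours before reading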
Cytochrome P450 2C9 = Cytochrome P450 2C9 (Homo sapiens, UniProt P11712)
Cytochrome P450 2C9, sequence (P11712 whole entry): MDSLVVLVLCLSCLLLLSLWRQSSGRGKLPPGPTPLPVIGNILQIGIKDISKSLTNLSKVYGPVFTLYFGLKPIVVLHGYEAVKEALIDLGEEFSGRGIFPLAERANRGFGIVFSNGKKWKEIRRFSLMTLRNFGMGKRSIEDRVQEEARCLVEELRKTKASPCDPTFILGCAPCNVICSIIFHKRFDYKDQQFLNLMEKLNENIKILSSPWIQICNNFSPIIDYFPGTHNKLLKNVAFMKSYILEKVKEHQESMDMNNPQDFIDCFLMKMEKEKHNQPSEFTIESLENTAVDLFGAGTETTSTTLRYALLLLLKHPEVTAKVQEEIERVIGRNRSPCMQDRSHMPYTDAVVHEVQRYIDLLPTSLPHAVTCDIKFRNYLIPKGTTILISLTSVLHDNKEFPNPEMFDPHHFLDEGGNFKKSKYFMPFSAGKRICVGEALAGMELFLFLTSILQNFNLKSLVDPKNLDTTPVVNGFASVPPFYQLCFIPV

Cytochrome P450 1A2 = target: T2, Cytochrome P450 1A2 (Homo sapiens, UniProt P05177);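 note: PubChem cytochrome P450 panel assay, CYP1A2 panel member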
T2 sequence (P05177 whole entry): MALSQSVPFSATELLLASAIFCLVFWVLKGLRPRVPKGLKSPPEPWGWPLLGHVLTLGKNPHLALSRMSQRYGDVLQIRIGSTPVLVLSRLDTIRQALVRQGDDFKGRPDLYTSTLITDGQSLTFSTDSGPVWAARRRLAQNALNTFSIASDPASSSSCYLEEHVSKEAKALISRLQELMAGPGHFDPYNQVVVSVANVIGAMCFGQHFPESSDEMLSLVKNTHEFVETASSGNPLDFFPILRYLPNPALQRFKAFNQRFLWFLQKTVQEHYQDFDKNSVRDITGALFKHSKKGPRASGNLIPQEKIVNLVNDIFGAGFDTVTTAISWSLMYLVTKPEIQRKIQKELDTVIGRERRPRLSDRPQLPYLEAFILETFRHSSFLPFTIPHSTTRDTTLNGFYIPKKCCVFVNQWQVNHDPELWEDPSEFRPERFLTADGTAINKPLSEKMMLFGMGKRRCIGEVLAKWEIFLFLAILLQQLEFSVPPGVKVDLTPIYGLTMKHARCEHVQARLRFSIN

[4] = target: Luciferin 4-monooxygenase (Photinus pyralis, UniProt P08659); experiment: inhibition of purified Photinus pyralis luciferase – biochemical, luminescence, dose response (AID 1891)
Luciferin 4-monooxygenase, sequence (P08659 whole entry): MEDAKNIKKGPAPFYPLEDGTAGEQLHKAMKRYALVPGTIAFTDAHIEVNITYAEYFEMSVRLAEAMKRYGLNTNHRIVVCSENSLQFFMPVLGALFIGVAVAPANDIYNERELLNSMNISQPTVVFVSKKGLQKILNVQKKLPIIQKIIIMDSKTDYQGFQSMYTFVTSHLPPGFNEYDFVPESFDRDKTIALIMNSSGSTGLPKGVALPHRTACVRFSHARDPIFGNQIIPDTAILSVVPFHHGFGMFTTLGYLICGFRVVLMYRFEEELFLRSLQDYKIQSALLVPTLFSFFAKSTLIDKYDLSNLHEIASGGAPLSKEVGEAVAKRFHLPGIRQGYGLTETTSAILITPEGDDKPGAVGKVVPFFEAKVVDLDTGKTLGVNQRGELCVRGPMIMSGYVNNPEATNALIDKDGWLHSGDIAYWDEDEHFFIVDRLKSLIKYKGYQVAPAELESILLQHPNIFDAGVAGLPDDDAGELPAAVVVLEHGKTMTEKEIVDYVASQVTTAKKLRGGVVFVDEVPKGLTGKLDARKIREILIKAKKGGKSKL

[5] = target: FAD-linked sulfhydryl oxidase ALR (Homo sapiens, UniProt P55789); experiment: ALR-catalysed DTT oxidation blockers – biochemical, H2O2 detection, luminescence, cherry-pick, dose response (AID 493248)
FAD-linked sulfhydryl oxidase ALR, sequence (P55789 whole entry): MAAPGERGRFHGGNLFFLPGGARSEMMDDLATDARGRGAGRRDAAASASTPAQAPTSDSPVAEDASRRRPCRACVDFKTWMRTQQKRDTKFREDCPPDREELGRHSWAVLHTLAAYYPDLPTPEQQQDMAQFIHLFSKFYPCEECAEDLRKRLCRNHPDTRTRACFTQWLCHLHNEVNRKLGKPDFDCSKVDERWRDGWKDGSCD

[6] = Luminescence Cell-Based Dose Confirmation HTS to Identify Inhibitors of Platelet Dense Granule Release. [Related pubchem assays: 1663 (Primary HTS), 1678 (Summary of Project)]; format: functional
[7] = target: T3, Corticotropin-releasing factor receptor 2/Corticotropin-releasing factor-binding protein (Homo sapiens, UniProt P24387+Q13324); experiment: activators of CRF receptor 2 with binding protein – uHTS hits, confirmation (AID 602473); format: functional; settings: read-out: EC50_Mean
T3 sequence (Q13324 whole entry): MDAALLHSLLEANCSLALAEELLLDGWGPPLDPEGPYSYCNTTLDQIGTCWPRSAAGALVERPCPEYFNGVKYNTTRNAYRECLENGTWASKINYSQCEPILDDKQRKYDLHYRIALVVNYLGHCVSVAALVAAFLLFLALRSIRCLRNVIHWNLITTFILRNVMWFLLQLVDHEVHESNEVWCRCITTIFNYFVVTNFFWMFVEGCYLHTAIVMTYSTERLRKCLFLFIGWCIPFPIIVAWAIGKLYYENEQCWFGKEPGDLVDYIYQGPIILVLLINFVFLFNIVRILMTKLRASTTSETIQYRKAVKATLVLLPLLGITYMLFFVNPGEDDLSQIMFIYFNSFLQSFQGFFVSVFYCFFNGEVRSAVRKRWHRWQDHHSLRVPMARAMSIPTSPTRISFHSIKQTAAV
T3 sequence (P24387 whole entry): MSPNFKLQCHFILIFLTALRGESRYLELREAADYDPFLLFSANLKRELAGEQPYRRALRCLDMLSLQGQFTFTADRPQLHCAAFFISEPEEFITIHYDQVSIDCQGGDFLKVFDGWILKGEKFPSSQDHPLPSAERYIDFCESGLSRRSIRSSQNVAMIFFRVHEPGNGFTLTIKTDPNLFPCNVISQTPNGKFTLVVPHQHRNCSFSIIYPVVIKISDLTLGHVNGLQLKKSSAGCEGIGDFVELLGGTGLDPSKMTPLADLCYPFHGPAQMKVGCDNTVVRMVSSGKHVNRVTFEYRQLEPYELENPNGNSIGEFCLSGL

[8] = reduction of Shn3 3'UTR-driven luciferase in osteoblasts – cell-based, Clone20 osteoblasts, firefly luciferase, cherry-picked, dose response (AID 624132); format: functional;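 note: firefly luciferase luminescence from reporter carrying the Shn3 3'UTR in osteoblasts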
[9] = non-specific 3'UTR reporter inhibition in Clone20-Shn3RL – cell-based, Renilla luciferase, cherry-picked, counter-screen for Shn3 inhibitor project, dose response (AID 624133); format: functional
[10] = loss of viability in HepG2 cells – cell-based, CellTiter-Glo, cherry-picked, cytotoxicity control for Shn3 inhibitor project, dose response (AID 624134); format: functional
Cytochrome P450 2C19 = Cytochrome P450 2C19 (Homo sapiens, UniProt P33261); experiment: Cytochrome panel assay with activity outcomes. Panel member name: p450-cyp2c19 Compounds with AC50 equal or less than 10 uM are considered active; format: functional
Cytochrome P450 2C19, sequence (P33261 whole entry): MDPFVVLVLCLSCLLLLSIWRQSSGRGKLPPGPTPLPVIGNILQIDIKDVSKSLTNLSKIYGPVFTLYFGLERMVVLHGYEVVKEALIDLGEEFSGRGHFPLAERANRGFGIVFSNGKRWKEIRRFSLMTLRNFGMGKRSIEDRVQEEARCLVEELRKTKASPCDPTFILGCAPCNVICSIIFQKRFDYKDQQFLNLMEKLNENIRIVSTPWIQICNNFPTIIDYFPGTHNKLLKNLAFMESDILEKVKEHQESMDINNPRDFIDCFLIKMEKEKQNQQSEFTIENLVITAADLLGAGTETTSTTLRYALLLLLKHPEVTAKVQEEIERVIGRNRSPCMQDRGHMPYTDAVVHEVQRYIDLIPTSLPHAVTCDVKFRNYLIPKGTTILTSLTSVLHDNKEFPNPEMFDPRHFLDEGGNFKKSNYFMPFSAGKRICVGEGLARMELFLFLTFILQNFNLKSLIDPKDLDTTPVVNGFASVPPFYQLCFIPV

Cytochrome P450 3A4 = Cytochrome P450 3A4 (Homo sapiens, UniProt P08684);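 note: CYP3A4 tested as one member of a cytochrome P450 panel screen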
Cytochrome P450 3A4, sequence (P08684 whole entry): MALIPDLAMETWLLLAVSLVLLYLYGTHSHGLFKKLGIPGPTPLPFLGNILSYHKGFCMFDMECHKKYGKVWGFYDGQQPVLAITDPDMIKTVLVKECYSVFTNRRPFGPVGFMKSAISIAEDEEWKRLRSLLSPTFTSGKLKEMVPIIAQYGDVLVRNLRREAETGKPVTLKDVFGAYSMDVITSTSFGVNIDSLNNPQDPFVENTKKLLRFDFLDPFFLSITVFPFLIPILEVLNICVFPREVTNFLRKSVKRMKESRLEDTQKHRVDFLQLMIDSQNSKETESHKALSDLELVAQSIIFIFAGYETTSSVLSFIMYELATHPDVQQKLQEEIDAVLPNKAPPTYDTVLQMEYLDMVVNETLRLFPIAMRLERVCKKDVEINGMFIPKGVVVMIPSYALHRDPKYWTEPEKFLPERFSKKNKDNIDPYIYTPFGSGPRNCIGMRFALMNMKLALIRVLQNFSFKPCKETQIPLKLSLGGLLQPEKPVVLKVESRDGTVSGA

[11] = viability of PTEN-deleted HCT116 cells – cell-based, HCT116 PTEN knockout, dose response (AID 1047); format: functional;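 note: HCT116 colon tumor cells with PTEN knocked out; cells exposed to compound for 60 hours before readout; potency for loss of cell viability measured by luminescence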
[12] = viability of HCT116 lacking mutant beta-catenin – cell-based, human colon tumor, dose response (AID 1045); format: functional;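 note: HCT116 colon tumor cells with beta catenin knocked out; cells exposed to compound for 60 hours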
[13] = microbe, parasite or virus in culture; format: functional; settings: Mycobacterium tuberculosis
[14] = target: T4, RNA-binding protein pos-1 (Caenorhabditis elegans, UniProt G5EF15); experiment: disruptors of C. elegans POS-1 RNA interaction – biochemical, fluorescence polarization, dose response (AID 1964);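 note: purified POS-1 fused to maltose binding protein made in E. coli; potency of compounds blocking POS-1 binding to fluorescent RNA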
T4 sequence (G5EF15 whole entry): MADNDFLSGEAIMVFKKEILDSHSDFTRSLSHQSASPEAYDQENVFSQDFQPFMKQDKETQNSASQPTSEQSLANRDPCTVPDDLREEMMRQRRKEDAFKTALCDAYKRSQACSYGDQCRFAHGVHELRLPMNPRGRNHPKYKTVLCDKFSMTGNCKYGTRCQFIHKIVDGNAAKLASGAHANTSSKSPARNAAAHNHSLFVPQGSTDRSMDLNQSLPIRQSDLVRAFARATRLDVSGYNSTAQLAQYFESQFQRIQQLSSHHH

[15] = target: T5, Zinc finger protein mex-5 (Caenorhabditis elegans, UniProt Q9XUB2); experiment: potency of MEX-5 RNA-binding blockers – biochemical, C. elegans, fluorescence polarization, dose response (AID 1960)
T5 sequence (Q9XUB2 whole entry): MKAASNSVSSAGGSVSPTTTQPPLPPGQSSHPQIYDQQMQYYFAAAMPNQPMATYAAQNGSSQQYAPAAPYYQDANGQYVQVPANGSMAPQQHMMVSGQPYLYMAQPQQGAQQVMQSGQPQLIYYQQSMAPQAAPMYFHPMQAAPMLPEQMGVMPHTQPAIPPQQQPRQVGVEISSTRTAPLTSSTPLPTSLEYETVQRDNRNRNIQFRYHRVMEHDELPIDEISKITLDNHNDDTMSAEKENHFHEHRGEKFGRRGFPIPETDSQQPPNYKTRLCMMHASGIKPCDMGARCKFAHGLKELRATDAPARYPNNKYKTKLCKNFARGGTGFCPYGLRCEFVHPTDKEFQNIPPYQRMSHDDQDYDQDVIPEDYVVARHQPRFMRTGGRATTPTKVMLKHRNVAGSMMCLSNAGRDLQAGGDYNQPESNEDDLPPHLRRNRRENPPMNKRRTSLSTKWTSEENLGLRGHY

[16] = Luminescence Cell-Based Dose Retest to Confirm Inhibitors of Cancer Stem Cells. [Related pubchem assays (depositor defined):AID2717, AID2721]; format: functional; settings: Homo sapiens
[17] = test system: Streptococcus sp. 'group A'; experiment: Streptococcus pyogenes SK(-)GAS viability under kanamycin – luminescence, BacTiterGlo, confirmation, counter-screen for streptokinase expression inhibitor project, dose response (AID 1900); format: functional, organism-based
Streptococcus = experiment: GAS UMAA2166 growth inhibition – luminescence, BacTiterGlo, counter-screen for streptokinase expression inhibitor project, dose response (AID 1915); format: functional, organism-based;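 note: potency for reduction of bacterial viability or growth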

## COc1ccc(NC(=O)c2[nH]c(C)c(C(C)=O)c2C)cc1S(=O)(=O)Nc1ccc(Br)cc1
[1]
  EC50: 1.12 µM (active)
[2]
  EC50: > 260 µM (inactive)
[3]
  EC50: > 60 µM (not active)

## Cc1nn(C)c(Cl)c1S(=O)(=O)N[C@@H](c1ccccc1)[C@]1(C)C[C@H]1[C@@H](C)C(=O)Nc1ccc2ccccc2c1
Cytochrome P450 2C9
  AC50: 6.31 µM (inconclusive)
Cytochrome P450 1A2
  AC50: 5.01 µM (inconclusive)

## CC(C)C(=O)C(C)(C)CCc1ccccn1
Cytochrome P450 1A2
  AC50: 2.51 µM (inconclusive)

## COc1ccc(/C=N/NC(=O)c2ccncc2)cc1CN1CCN(c2ccc(F)cc2)CC1
[4]
  EC50: > 112 µM (not active)
[5]
  AC50: 7.46 µM (active)
[6]
  EC50: > 112 µM (not active)

## CC(C)Cc1ccc(C(C)C(=O)Nc2ccccc2O)cc1 (centres undefined)
[7]
  EC50: 5.7 µM (active)
[8]
  AC50: 1.89 µM (active)
[9]
  AC50: 4.26 µM (active)
[10]
  AC50: 6.63 µM (active)

## Nc1ncncc1-c1ccc([N+](=O)[O-])cc1
Cytochrome P450 2C19; read-out: AC50
  AC50: 10 µM (inconclusive)
Cytochrome P450 1A2
  AC50: 28.2 µM (inconclusive)
Cytochrome P450 3A4
  AC50: 12.6 µM (inconclusive)

## Cc1ccc(NC2CCCN(C(=O)c3cn4cccc(C)c4n3)C2)cc1C (centres undefined)
[5]
  AC50: 9.91 µM (active)

## COc1cc(OC)cc(C(=O)NCC(=O)OC2CCOC2=O)c1 (centres undefined)
Cytochrome P450 2C19
  AC50: inconclusive
Cytochrome P450 1A2
  AC50: 0.0316 µM (inconclusive)

## CC1(CCC(=O)N2CCCC(Nc3ccc(F)cc3)C2)CC1 (centres undefined)
[5]
  AC50: 5.27 µM (active)

## COc1ccc(N2CCN(C(=O)c3ccc(SC)cc3OC)CC2)cc1
[5]
  AC50: 6.05 µM (active)

## Cc1cc(C)n2cc(COc3ccc4ccccc4c3)nc2n1
[2]
  EC50: > 260 µM (inconclusive)

## COC(=O)N1CCC[C@@]2(CCN(C(=O)Nc3ccccc3)C2)C1
Cytochrome P450 1A2
  AC50: 12.6 µM (inconclusive)

## COc1ccc2c(c1)N(CC[C@H]1CCCCN1C)c1ccccc1S2
Cytochrome P450 1A2
  AC50: 1.26 µM (inconclusive)

## Cc1ccc(S(=O)(=O)c2cccc(S(=O)(=O)N3CCCC3)c2)cc1S(=O)(=O)N1CCCC1
[11]
  EC50: 35.7 µM (active)
[12]
  EC50: 28.3 µM (active)

## O=C(NN=C1CCCC1)c1cc(-c2ccccc2)[nH]n1
[5]
  AC50: 16.9 µM (active)

## Cc1cc(O)c(C(C)C)cc1NC(=O)Nc1cccc2ccccc12
Cytochrome P450 1A2
  AC50: 0.794 µM (inconclusive)
Cytochrome P450 3A4
  AC50: 3.16 µM (inconclusive)

## Cc1sc2ncnc(Oc3ccc(-n4ccnc4)cc3)c2c1C
[13]
  CC50: > 40 µM (active)

## CC1CC(C)(C)N(C(=O)NC2CCCCC2)c2ccccc21 (centres undefined)
[2]
  EC50: > 260 µM (inactive)

## COC(=O)C1=C(C)N=C2SC(C#N)=C(N)N2C1c1cccc(OC)c1 (centres undefined)
[4]
  EC50: > 112 µM (not active)
[14]
  EC50: > 300 µM (not active)
[6]
  EC50: > 112 µM (not active)
[15]
  EC50: > 300 µM (not active)

## BrC(/C=C\c1ccccc1)=N/Nc1nc(N2CCOCC2)nc(N2CCOCC2)n1
[2]
  EC50: > 260 µM (inactive)

## N#CCCn1cc(/C=C2\NC(=S)N(c3ccccc3)C2=O)c(-c2ccc(-c3ccccc3)cc2)n1
[13]
  CC50: 38.2 µM (active)

## O=C(NNS(=O)(=O)c1ccc(F)cc1)c1cc2ccccc2cc1O
[5]
  AC50: 4.07 µM (active)

## Cc1ccc(NC(=O)C2CCN(S(=O)(=O)c3ccc4c(c3)NC(=O)C(C)S4)CC2)cc1C (centres undefined)
[8]
  AC50: 2.61 µM (active)
[9]
  AC50: 6.43 µM (active)
[10]
  AC50: 68.3 µM (active)

## O=C1CC(=C(c2ccccc2)c2ccccc2)C(=O)N1CCCCN1CCN(c2ccccc2)CC1
[13]
  CC50: > 40 µM (active)

## FC(F)(F)c1cccc(NC(S)=NCc2ccccn2)c1
[2]
  EC50: > 260 µM (inactive)

## Cc1ccccc1-c1cncnc1NC1CCNCC1
Cytochrome P450 1A2
  AC50: 0.00794 µM (inconclusive)

## COc1ccc(NS(=O)(=O)c2ccc3[nH]c(COc4cccc5ccccc45)nc3c2)cc1
[13]
  CC50: 32.6 µM (active)
[16]
  AC50: 3.87 µM (active)
[17]
  EC50: 6.33 µM (active)
Streptococcus
  EC50: 91 µM (active)

## CCNC(=S)N/N=C/c1ccc(-c2ccccc2)o1
[2]
  EC50: > 260 µM (inactive)
